Results published in patent US8048879B2, “Substituted 4,5,6,7-tetrahydro-isoxazolo[4,5-c]pyridine compounds and use thereof for producing medicaments” (Gruenenthal GmbH, priority 2005, dated 2011).

Each compound was assayed on batrachotoxin (BTX) binding site of the sodium channel (assay: Affinity for the batrachotoxin (BTX) binding site of the sodium channel, [3H]-batrachotoxinin A20 α-benzoate, rat cerebrocortex synaptosomes). Conditions: test concentration not given.

Row | SMILES | BTX inhibition (rat) % inhibition [%]
1 | O=C(NC1CCCC1)c1noc2c1CN(C(=O)NCc1ccc(F)cc1)CC2 [Example 2, 6,7-dihydro-4H-isoxazolo[4,5-c]pyridine-3,5-dicarboxylic acid 3-cyclopentyl amide 5-(4-fluorobenzyl amide)] | 83
2 | O=C(Nc1ccccc1)c1noc2c1CN(C(=O)Nc1ccc(OC(F)(F)F)cc1)CC2 [Example 3, 6,7-dihydro-4H-isoxazolo[4,5-c]pyridine-3,5-dicarboxylic acid 3-phenyl amide 5-[(4-trifluoromethoxy-phenyl) amide]] | 73
3 | Cc1ccc(NC(=O)N2CCc3onc(C(=O)NCCc4ccccc4)c3C2)cc1[N+](=O)[O-] [Example 4, 6,7-dihydro-4H-isoxazolo[4,5-c]pyridine-3,5-dicarboxylic acid 5-[(4-methyl-3-nitro-phenyl) amide] 3-(phenethyl amide)] | 80
4 | O=C(NCCc1ccccc1)c1noc2c1CN(C(=O)Nc1cccc(F)c1)CC2 [Example 8, 6,7-dihydro-4H-isoxazolo[4,5-c]pyridine-3,5-dicarboxylic acid 5-[(3-fluorophenyl) amide] 3-(phenethyl amide)] | 72
5 | Cc1ccc(NC(=O)N2CCc3onc(C(=O)NCc4cccs4)c3C2)cc1[N+](=O)[O-] [Example 9, 6,7-dihydro-4H-isoxazolo[4,5-c]pyridine-3,5-dicarboxylic acid 5-[(4-methyl-3-nitro-phenyl) amide] 3-[(thiophen-2-ylmethyl) amide]] | 43
6 | O=C(NCc1ccccc1)c1noc2c1CN(C(=O)NCCc1ccccc1)CC2 [Example 10, 6,7-dihydro-4H-isoxazolo[4,5-c]pyridine-3,5-dicarboxylic acid 3-benzyl amide 5-(phenethyl amide)] | 64
7 | N#Cc1cccc(NC(=O)N2CCc3onc(C(=O)NCc4cccs4)c3C2)c1 [Example 12, 6,7-dihydro-4H-isoxazolo[4,5-c]pyridine-3,5-dicarboxylic acid 5-[(3-cyano-phenyl) amide]3-[(thiophen-2-ylmethyl) amide]] | 47
8 | CCOc1ccc(NC(=O)N2CCc3onc(C(=O)Nc4ccccc4)c3C2)cc1 [Example 13, 6,7-dihydro-4H-isoxazolo[4,5-c]pyridine-3,5-dicarboxylic acid 5-[(4-ethoxy-phenyl) amide] 3-phenyl amide] | 58
9 | Cc1ccc(NC(=O)N2CCc3onc(C(=O)NCc4ccc(F)cc4)c3C2)cc1[N+](=O)[O-] [Example 14, 6,7-dihydro-4H-isoxazolo[4,5-c]pyridine-3,5-dicarboxylic acid 3-(4-fluorobenzyl amide) 5-[(4-methyl-3-nitro-phenyl) amide]] | 70
10 | CC(NC(=O)N1CCc2onc(C(=O)NCCc3ccccc3)c2C1)c1cccc2ccccc12 (stereo not drawn) [Example 18, 6,7-dihydro-4H-isoxazolo[4,5-c]pyridine-3,5-dicarboxylic acid 5-[(1-naphthalen-1-yl-ethyl) amide]3-(phenethyl amide)] | 75
11 | CCOc1ccc(NC(=O)N2CCc3onc(C(=O)NCc4ccc(F)cc4)c3C2)cc1 [Example 21, 6,7-dihydro-4H-isoxazolo[4,5-c]pyridine-3,5-dicarboxylic acid 5-[(4-ethoxy-phenyl) amide] 3-(4-fluorobenzyl amide)] | 68
12 | COc1ccc(Cl)cc1NC(=O)N1CCc2onc(C(=O)NCCc3ccccc3)c2C1 [Example 22, 6,7-dihydro-4H-isoxazolo[4,5-c]pyridine-3,5-dicarboxylic acid 5-[(5-chloro-2-methoxyphenyl) amide] 3-(phenethyl amide)] | 56
13 | CCOC(=O)c1cccc(NC(=O)N2CCc3onc(C(=O)NCc4ccc(C)o4)c3C2)c1 [Example 23, 3-({3-[(5-methyl-furan-2-ylmethyl)-carbamoyl]-6,7-dihydro-4H-isoxazolo[4 5-c]pyridine-5-carbonyl}-amino)-benzoic acid ethyl ester] | 46
14 | O=C(O)CC1(CC(=O)N2CCc3onc(C(=O)Nc4ccccc4)c3C2)CCCC1 [Example 28, {1-[2-oxo-2-(3-phenylcarbamoyl-6,7-dihydro-4H-isoxazolo[4,5-c]pyridin-5-yl)-ethyl]-cyclopentyl}acetic acid] | 60
15 | O=C(c1noc2c1CN(S(=O)(=O)c1ccc(OC(F)(F)F)cc1)CC2)N(CCc1ccccc1)Cc1ccccc1 [Example 32, 5-(4-trifluoromethoxy-benzenesulfonyl)-4,5,6,7-tetrahydro-isoxazolo[4,5-c]pyridine-3-carboxylic acid benzyl-phenethyl amide] | 59
16 | O=C(NC1CCN(Cc2ccc3ccccc3c2)C1)c1noc2c1CN(S(=O)(=O)c1ccccc1)CC2 (stereo not drawn) [Example 33, 5-benzenesulfonyl-4,5,6,7-tetrahydro-isoxazolo[4,5-c]pyridine-3-carboxylic acid (1-naphthalen-2-ylmethyl-pyrrolidin-3-yl) amide] | 93
17 | O=C(c1noc2c1CN(S(=O)(=O)c1ccc(F)cc1)CC2)N1CCN(c2ncnc3sccc23)CC1 [Example 34] | 42
18 | O=C(NCCCc1ccccc1)c1noc2c1CN(S(=O)(=O)c1ccc(F)cc1)CC2 [Example 35, 5-(4-fluoro-benzenesulfonyl)-4,5,6,7-tetrahydro-isoxazolo[4,5-c]pyridine-3-carboxylic acid (3-phenyl-propyl) amide] | 59
19 | O=C(NC1CCN(Cc2ccc(C(F)(F)F)cc2)C1)c1noc2c1CN(S(=O)(=O)c1ccc(F)cc1)CC2 (stereo not drawn) [Example 39, 5-(4-fluoro-benzenesulfonyl)-4,5,6,7-tetrahydro-isoxazolo[4,5-c]pyridine-3-carboxylic acid [1-(4-trifluoromethyl-benzyl)-pyrrolidin-3-yl]amide] | 79
20 | O=C(NC1CCCC1OCc1ccccc1)c1noc2c1CN(S(=O)(=O)c1cc(Cl)ccc1Cl)CC2 (stereo not drawn) [Example 40, 5-(2,5-dichloro-benzenesulfonyl)-4,5,6,7-tetrahydro-isoxazolo[4,5-c]pyridine-3-carboxylic acid (2-benzyloxy-cyclopentyl) amide] | 65
21 | O=C(c1noc2c1CN(S(=O)(=O)c1ccc(F)cc1)CC2)N1CC=C(c2ccc(F)cc2)CC1 [Example 42, [5-(4-fluoro-benzenesulfonyl)-4,5,6,7-tetrahydro-isoxazolo[4,5-c]pyridin-3-yl]-[4-(4-fluorophenyl)-3,6-dihydro-2H-pyridin-1-yl]-methanone] | 54
22 | CC12CCC(C(=O)N3CCc4onc(C(=O)NCCN5CCCC5)c4C3)(OC1=O)C2(C)C (stereo not drawn) [Example 51, 5-(4,7,7-trimethyl-3-oxo-2-oxa-bicyclo[2.2.1]heptane-1-carbonyl)-4,5,6,7-tetrahydro-isoxazolo[4,5-c]pyridine-3-carboxylic acid (2-pyrrolidin-1-yl-ethyl) amide] | 42
23 | O=C(NCCc1ccccc1Cl)c1noc2c1CN(S(=O)(=O)c1cc(Cl)ccc1Cl)CC2 [Example 52, 5-(2,5-dichloro-benzenesulfonyl)-4,5,6,7-tetrahydro-isoxazolo[4,5-c]pyridine-3-carboxylic acid [2-(2-chlorophenyl)-ethyl] amide] | 44
24 | O=C(c1noc2c1CN(S(=O)(=O)c1cc(Cl)ccc1Cl)CC2)N(CCc1ccccc1)Cc1ccccc1 [Example 59, 5-(2,5-dichloro-benzenesulfonyl)-4,5,6,7-tetrahydro-isoxazolo[4,5-c]pyridine-3-carboxylic acid benzyl-phenethyl amide] | 58
25 | O=C(NCCN1CCOCC1)c1noc2c1CN(S(=O)(=O)c1cc(Cl)c(Cl)s1)CC2 [Example 63, 5-(4,5-dichloro-thiophene-2-sulfonyl)-4,5,6,7-tetrahydro-isoxazolo[4,5-c]pyridine-3-carboxylic acid (2-morpholin-4-yl-ethyl) amide] | 55
26 | Cc1ccc(N2CCN(C(=O)c3noc4c3CN(S(=O)(=O)c3cc(Cl)ccc3Cl)CC4)CC2)c(C)c1 [Example 65, [5-(2,5-dichloro-benzenesulfonyl)-4,5,6,7-tetrahydro-isoxazolo[4,5-c]pyridin-3-yl]-[4-(2,4-dimethyl-phenyl)-piperazin-1-yl]-methanone] | 49
27 | O=C(c1noc2c1CN(S(=O)(=O)c1cccc(C(F)(F)F)c1)CC2)N(CCc1ccccc1)Cc1ccccc1 [Example 68, 5-(3-trifluoromethyl-benzenesulfonyl)-4,5,6,7-tetrahydro-isoxazolo[4,5-c]pyridine-3-carboxylic acid benzyl-phenethyl amide] | 51
28 | CN(C)S(=O)(=O)N1CCc2onc(C(=O)NCCc3ccc(Cl)cc3)c2C1 [Example 76, 5-dimethylsulfamoyl-4,5,6,7-tetrahydro-isoxazolo[4,5-c]pyridine-3-carboxylic acid [2-(4-chlorophenyl)-ethyl] amide] | 41
29 | O=C(NC1CCCC1)c1noc2c1CN(C(=O)COc1ccc(Cl)cc1)CC2 [Example 81, 5-[2-(4-chlorophenoxy)-acetyl]-4,5,6,7-tetrahydro-isoxazolo[4,5-c]pyridine-3-carboxylic acid cyclopentyl amide] | 65
30 | Cc1ccc(S(=O)(=O)N2CCc3onc(C(=O)N4CCN(CCC5CCCCC5)CC4)c3C2)cc1 [Example 82, [4-(2-cyclohexyl-ethyl)-piperazin-1-yl]-[5-(toluene-4-sulfonyl)-4,5,6,7-tetrahydro-isoxazolo[4,5-c]pyridin-3-yl]-methanone] | 69
